The values below come from patent US20130115256A1, “METHODS FOR TREATING OR PREVENTING VASCULAR GRAFT FAILURE” (priority 2010, published 2013).

Assay [1] has as its system immortalized human pleural mesothelial cells (ATCC CRL-9444). Put plainly: TNF-α-induced IL-6 expression in mesothelial cells (ELISA). The class given is cell-based. From the text: In order to examine the efficacy of MMI-0100 ([…]; SEQ ID NO: 1) in inhibiting the production of inflammatory cytokines, an inflammatory response was triggered in vitro by applying TNF-α to immortalized human pleural mesothelial cells (ATCC CRL-9444). A mesothelial cell is a cell type that forms a monolayer of specialized pavement-like cells (mesothelium) that lines the body's abdominal cavities and internal organs. The primary function of this layer, the mesothelium, is to provide a slippery, non-adhesive, and protective surface. Mesothelial cells also are involved in transport of fluid and cells across the peritoneal (abdominal) cavities, antigen presentation, inflammation, tissue repair, coagulation, and tumor cell adhesion. It is well known that mesothelial cells play important role in the peritoneal inflammatory response. In response to bacterial products and macrophage-derived inflammatory cytokines (e.g., TNF-α), mesothelial cells produce Interleukin-1 (IL-1), Interleukin-6 (IL-6), and Interleukin-8 (IL-8), thus amplifying the inflammatory signals and recruiting leukocytes into the infected abdominal cavity.
Expression of inflammatory cytokines was induced by applying 1 or 10 ng/ml of TNF-α to cultured mesothelial cells. Briefly, immortalized human pleural mesothelial cells (ATCC CRL-9444) were grown in Medium199 with Earle's BSS, 0.75 mM L-glutamine (Mediatech Inc., Manassas, Va.), 1.25 g/l sodium bicarbonate (Sigma), 3.3 nM epidermal growth factor (EGF) (MBL International, Woburn, Mass.), 40 nM hydrocortisone (Sigma), 870 nM insulin (MBL International), 20 mM HEPES (Sigma), trace elements mixture B (Mediatech Inc., Waltham, Mass.), 10% fetal bovine serum (FBS) (Hyclone), and 1% penicillin/streptomycin (Mediatech Inc., Waltham, Mass.). […] Human mesothelial cells were treated with two different concentrations (1 and 10 ng/mL) of TNF-α for 2, 6, 12, and 24 hours (data not shown). […] Without TNF-α stimulation, mesothelial cells made negligible amounts of IL-6. […] In subsequent experiments designed to determine whether the MMI-0100 peptide ([…]; SEQ ID NO: 1) could reduce TNF-α induced IL-6 expression, both 1 and 10 ng/mL of TNF-α were selected as stimuli. 10 ng/mL of TNF-α is regarded as more physiologically relevant for mesothelial cells.
Prior to cytokine and/or inhibitor treatment, cells were allowed to acclimate in serum-free media consisting of only Medium 199 with Earle's BSS, 0.75 mM L-glutamine, 1.25 g/l sodium bicarbonate, 20 mM HEPES, trace elements mixture B (Mediatech Inc., Waltham, Mass.), and 1% penicillin/streptomycin (Mediatech Inc., Waltham, Mass.) for 24 hours. After the adapting period, cytokines (TNF-α and IL-1β) with or without MMI-0100 peptide or Rottlerin (Tocris Bioscience, Ellisville, Mo.; IC50=5 μM) were added to the media in order to compare the efficacy of MMI-0100 ([…]; SEQ ID NO: 1) with that of Rottlerin. Specifically, serum-starved mesothelial cells were treated with two different concentrations (1000 μM or 3000 μM) of MMI-0100 ([…] (SEQ ID NO: 1)) at three different time points (6 hours, 12 hours, and 24 hours) using two different concentrations of TNF-α (1 ng/ml or 10 ng/ml) or using 1 ng/ml of IL-1β. Average concentration of IL-6 (pg/ml per 10^5 cells) at each time was determined by cytokine-specific ELISA.
(In general: ELISA stands for enzyme-linked immunosorbent assay.)

The test system of assay [2] is P38MAPK. Put plainly: p38 MAPK radiometric kinase assay. The format is biochemical. The following applies: MMI-0100 100 μM; remaining kinase activity. The source says:
A commercial radiometric assay service was used to test the specificity and potency of MMI-0100 ([…]; SEQ ID NO: 1) by measuring its half maximal inhibitory concentrations (IC50). This quantitative assay measures how much MK2 inhibitor (MMI-0100; […] (SEQ ID NO: 1)) is needed to inhibit 50% of a given biological process or component of a process (i.e., an enzyme, cell, or cell receptor). Specifically, in these assays, a positively charged substrate is phosphorylated with a radiolabeled phosphate group from an ATP if the kinase is not inhibited by an inhibitor peptide. The positively charged substrate then is attracted to a negatively charged filter membrane, quantified with a scintillation counter, and compared to a 100% activity control. […]
For the p38 MAPK (p38 Mitogen-Activated Protein Kinase) radiometric assay, 5-10 mU of p38 MAPK was incubated with 25 mM Tris pH 7.5, 0.02 mM EGTA, 0.33 mg/mL myelin basic protein (a substrath for p38 MAPK), 10 mM MgAcetate, and 10 μM of [y-^33P-ATP] in the final reaction volume of 25 μl. […] The washed P30 filtermat was dried and its radioactivity was measured by scintillation counter.
IC50 values for inhibitor peptides were determined using Millipore's IC50 Profiler Express service. […]

As for YARAAARQARAKALARQLGVAA [MMI-0100], the IL-6 expression result in assay [1] (1 ng/mL TNF-α, MMI-0100 1000 μM or 3000 μM) was “reduced IL-6 expression to the levels at or below the untreated baseline”; in assay [1] (10 ng/mL TNF-α, 3000 μM MMI-0100, every time point (6, 12, 24 hours)), “reduced IL-6 expression to the levels of the untreated baseline”; in assay [1] (10 ng/mL TNF-α, MMI-0100), “still effective”. The “Percent Activity, P38MAPK” value in assay [2] was 60%.
